# Measurements reported in ChEMBL document CHEMBL1201862, “PubChem BioAssay data set” (2004).
#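 Five concentrations, 48 hours, 96-well plates. The concentration for 50% growth inhibition is given as GI50.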 Activity calls are given as the source filed them. Cut-off read from the data, not from the text of the source: active = GI50 up to about 1.1 µM and inactive = higher.
# Key:
# Test in all cases: inhibition of tumour cell growth, NCI panel, 48 h
# A549 = system: A549
# Malme-3M = system: Malme-3M
# HCT-15 = system: HCT-15
# OVCAR-8 = system: OVCAR-8
# NCI-H23 = system: NCI-H23
# SW-620 = system: SW-620
# MDA-MB-435 = system: MDA-MB-435
# HCT-116 = system: HCT-116
# NCI-H226 = system: NCI-H226
# NCI-H460 = system: NCI-H460
# HL-60 = system: HL-60
# UACC-257 = system: UACC-257
# MDA-N = system: MDA-N
# HOP-92 = system: HOP-92
# A498 = system: A498
# CCRF-CEM = system: CCRF-CEM
# SK-OV-3 = system: SK-OV-3
# COLO 205 = system: COLO 205
# MOLT-4 = system: MOLT-4
# NCI-H522 = system: NCI-H522
# UACC-62 = system: UACC-62
# Hs-578T = system: Hs-578T
# SN12C = system: SN12C
# SF-295 = system: SF-295
# M14 = system: M14
# OVCAR-5 = system: OVCAR-5
# HOP-62 = system: HOP-62
# T47D = system: T47D
# HT-29 = system: HT-29
# K562 = system: K562
# SK-MEL-28 = system: SK-MEL-28
# SK-MEL-5 = system: SK-MEL-5
# UO-31 = system: UO-31
# SR = system: SR
# MDA-MB-231 = system: MDA-MB-231
# MCF7 = system: MCF7
# IGROV-1 = system: IGROV-1
# RPMI-8226 = system: RPMI-8226
# U-251 = system: U-251
# OVCAR-4 = system: OVCAR-4
# HCC 2998 = system: HCC 2998
# SNB-75 = system: SNB-75
# LOX IMVI = system: LOX IMVI
# CAKI-1 = system: CAKI-1
# SF-539 = system: SF-539
# SK-MEL-2 = system: SK-MEL-2
# TK-10 = system: TK-10
# SF-268 = system: SF-268
# RXF 393 = system: RXF 393
# DU-145 = system: DU-145
# SNB-19 = system: SNB-19
# PC-3 = system: PC-3
# NCI/ADR-RES = system: NCI/ADR-RES
# ACHN = system: ACHN
# BT-549 = system: BT-549
# KM12 = system: KM12
# 786-0 = system: 786-0
# EKVX = system: EKVX
# OVCAR-3 = system: OVCAR-3
smiles,measurement,setting,value
O=C(O)C(F)(OC(F)(F)C(F)(OC(F)(F)C(F)(F)C(F)(F)F)C(F)(F)F)C(F)(F)F (configuration not stated),GI50,A549,> 100 µM (inactive)
same,GI50,Malme-3M,> 100 µM (inactive)
same,GI50,HCT-15,> 100 µM
same,GI50,OVCAR-8,> 100 µM (inactive)
same,GI50,NCI-H23,> 100 µM (inactive)
same,GI50,SW-620,> 100 µM (inactive)
same,GI50,MDA-MB-435,> 100 µM (inactive)
same,GI50,HCT-116,> 100 µM (inactive)
same,GI50,NCI-H226,> 100 µM (inactive)
same,GI50,NCI-H460,> 100 µM (inactive)
same,GI50,HL-60,> 100 µM (inactive)
same,GI50,UACC-257,> 100 µM (inactive)
same,GI50,MDA-N,> 100 µM (inactive)
same,GI50,HOP-92,63.7 µM (inactive)
same,GI50,A498,> 100 µM (inactive)
same,GI50,CCRF-CEM,> 100 µM (inactive)
same,GI50,SK-OV-3,> 100 µM (inactive)
same,GI50,COLO 205,> 100 µM (inactive)
same,GI50,MOLT-4,> 100 µM (inactive)
same,GI50,NCI-H522,> 100 µM (inactive)
same,GI50,UACC-62,> 100 µM (inactive)
same,GI50,Hs-578T,> 100 µM (inactive)
same,GI50,SN12C,78.5 µM (inactive)
same,GI50,SF-295,> 100 µM (inactive)
same,GI50,M14,> 100 µM (inactive)
same,GI50,OVCAR-5,> 100 µM (inactive)
same,GI50,HOP-62,> 100 µM (inactive)
same,GI50,T47D,> 100 µM (inactive)
same,GI50,HT-29,> 100 µM (inactive)
same,GI50,K562,> 100 µM (inactive)
same,GI50,SK-MEL-28,> 100 µM (inactive)
same,GI50,SK-MEL-5,> 100 µM (inactive)
same,GI50,UO-31,> 100 µM (inactive)
same,GI50,SR,> 100 µM (inactive)
same,GI50,MDA-MB-231,> 100 µM (inactive)
same,GI50,MCF7,> 100 µM (inactive)
same,GI50,IGROV-1,> 100 µM (inactive)
same,GI50,RPMI-8226,> 100 µM (inactive)
same,GI50,U-251,> 100 µM (inactive)
same,GI50,OVCAR-4,> 100 µM (inactive)
same,GI50,HCC 2998,> 100 µM (inactive)
same,GI50,SNB-75,> 100 µM (inactive)
same,GI50,LOX IMVI,> 100 µM (inactive)
same,GI50,CAKI-1,> 100 µM (inactive)
same,GI50,SF-539,> 100 µM (inactive)
same,GI50,SK-MEL-2,> 100 µM (inactive)
same,GI50,TK-10,> 100 µM (inactive)
same,GI50,SF-268,> 100 µM (inactive)
same,GI50,RXF 393,> 100 µM (inactive)
same,GI50,DU-145,> 100 µM (inactive)
same,GI50,SNB-19,> 100 µM (inactive)
same,GI50,PC-3,59.7 µM (inactive)
same,GI50,NCI/ADR-RES,> 100 µM (inactive)
same,GI50,ACHN,> 100 µM (inactive)
same,GI50,BT-549,> 100 µM (inactive)
same,GI50,KM12,> 100 µM (inactive)
same,GI50,786-0,> 100 µM (inactive)
same,GI50,EKVX,> 100 µM (inactive)
same,GI50,OVCAR-3,> 100 µM (inactive)
CC(=O)[C@@]1(O)CC[C@H]2[C@@H]3C[C@H](C)C4=CC(=O)CC[C@]4(C)[C@H]3[C@@H](O)C[C@@]21C,GI50,A549,60.1 µM (inactive)
same,GI50,Malme-3M,> 100 µM (inactive)
same,GI50,HCT-15,> 100 µM
same,GI50,OVCAR-8,> 100 µM (inactive)
same,GI50,NCI-H23,> 100 µM (inactive)
same,GI50,SW-620,> 100 µM (inactive)
same,GI50,MDA-MB-435,> 100 µM (inactive)
same,GI50,HCT-116,> 100 µM (inactive)
same,GI50,NCI-H226,> 100 µM (inactive)
same,GI50,NCI-H460,> 100 µM (inactive)
same,GI50,HL-60,> 100 µM (inactive)
same,GI50,UACC-257,> 100 µM (inactive)
same,GI50,MDA-N,> 100 µM (inactive)
same,GI50,HOP-92,> 100 µM (inactive)
same,GI50,A498,> 100 µM (inactive)
same,GI50,CCRF-CEM,14.1 µM (inactive)
same,GI50,SK-OV-3,> 100 µM (inactive)
same,GI50,COLO 205,> 100 µM (inactive)
same,GI50,MOLT-4,46 µM (inactive)
same,GI50,NCI-H522,73.6 µM (inactive)
same,GI50,UACC-62,> 100 µM (inactive)
same,GI50,Hs-578T,68.1 µM (inactive)
same,GI50,SN12C,> 100 µM (inactive)
same,GI50,SF-295,> 100 µM (inactive)
same,GI50,M14,> 100 µM (inactive)
same,GI50,OVCAR-5,> 100 µM (inactive)
same,GI50,HOP-62,> 100 µM (inactive)
same,GI50,T47D,94.2 µM (inactive)
same,GI50,HT-29,> 100 µM (inactive)
same,GI50,K562,> 100 µM (inactive)
same,GI50,SK-MEL-28,> 100 µM (inactive)
same,GI50,SK-MEL-5,> 100 µM (inactive)
same,GI50,UO-31,> 100 µM (inactive)
same,GI50,SR,> 100 µM (inactive)
same,GI50,MDA-MB-231,> 100 µM (inactive)
same,GI50,MCF7,> 100 µM (inactive)
same,GI50,IGROV-1,> 100 µM (inactive)
same,GI50,RPMI-8226,< 0.01 µM (active)
same,GI50,U-251,> 100 µM (inactive)
same,GI50,OVCAR-4,> 100 µM (inactive)
same,GI50,HCC 2998,> 100 µM (inactive)
same,GI50,SNB-75,> 100 µM (inactive)
same,GI50,LOX IMVI,> 100 µM (inactive)
same,GI50,CAKI-1,> 100 µM (inactive)
same,GI50,SF-539,> 100 µM (inactive)
same,GI50,SK-MEL-2,> 100 µM (inactive)
same,GI50,TK-10,> 100 µM (inactive)
same,GI50,SF-268,> 100 µM (inactive)
same,GI50,RXF 393,> 100 µM (inactive)
same,GI50,DU-145,> 100 µM (inactive)
same,GI50,SNB-19,> 100 µM (inactive)
same,GI50,PC-3,> 100 µM (inactive)
same,GI50,NCI/ADR-RES,> 100 µM (inactive)
same,GI50,ACHN,> 100 µM (inactive)
same,GI50,BT-549,> 100 µM (inactive)
same,GI50,KM12,> 100 µM (inactive)
same,GI50,786-0,> 100 µM (inactive)
same,GI50,EKVX,68.7 µM (inactive)
same,GI50,OVCAR-3,> 100 µM (inactive)
CC1(C)OCC(C2OC3OC(C)(C)OC3C2N)O1 (configuration not stated),GI50,A549,> 100 µM (inactive)
same,GI50,Malme-3M,> 100 µM (inactive)
same,GI50,HCT-15,> 100 µM
same,GI50,OVCAR-8,> 100 µM (inactive)
same,GI50,NCI-H23,> 100 µM (inactive)
same,GI50,SW-620,> 100 µM (inactive)
same,GI50,MDA-MB-435,> 100 µM (inactive)
same,GI50,HCT-116,> 100 µM (inactive)
same,GI50,NCI-H226,> 100 µM (inactive)
same,GI50,NCI-H460,> 100 µM (inactive)
same,GI50,HL-60,> 100 µM (inactive)
same,GI50,UACC-257,> 100 µM (inactive)
same,GI50,MDA-N,> 100 µM (inactive)
same,GI50,HOP-92,> 100 µM (inactive)
same,GI50,A498,> 100 µM (inactive)
same,GI50,CCRF-CEM,> 100 µM (inactive)
same,GI50,SK-OV-3,> 100 µM (inactive)
same,GI50,COLO 205,> 100 µM (inactive)
same,GI50,MOLT-4,> 100 µM (inactive)
same,GI50,NCI-H522,> 100 µM (inactive)
same,GI50,UACC-62,> 100 µM (inactive)
same,GI50,Hs-578T,> 100 µM (inactive)
same,GI50,SN12C,> 100 µM (inactive)
same,GI50,SF-295,> 100 µM (inactive)
same,GI50,M14,> 100 µM (inactive)
same,GI50,OVCAR-5,> 100 µM (inactive)
same,GI50,HOP-62,> 100 µM (inactive)
same,GI50,T47D,> 100 µM (inactive)
same,GI50,HT-29,> 100 µM (inactive)
same,GI50,K562,> 100 µM (inactive)
same,GI50,SK-MEL-28,> 100 µM (inactive)
same,GI50,SK-MEL-5,> 100 µM (inactive)
same,GI50,UO-31,> 100 µM (inactive)
same,GI50,SR,> 100 µM (inactive)
same,GI50,MDA-MB-231,> 100 µM (inactive)
same,GI50,MCF7,> 100 µM (inactive)
same,GI50,IGROV-1,> 100 µM (inactive)
same,GI50,RPMI-8226,> 100 µM (inactive)
same,GI50,U-251,> 100 µM (inactive)
same,GI50,OVCAR-4,> 100 µM (inactive)
same,GI50,HCC 2998,> 100 µM (inactive)
same,GI50,SNB-75,> 100 µM (inactive)
same,GI50,LOX IMVI,> 100 µM (inactive)
same,GI50,CAKI-1,> 100 µM (inactive)
same,GI50,SF-539,> 100 µM (inactive)
same,GI50,SK-MEL-2,> 100 µM (inactive)
same,GI50,TK-10,> 100 µM (inactive)
same,GI50,SF-268,> 100 µM (inactive)
same,GI50,RXF 393,> 100 µM (inactive)
same,GI50,DU-145,> 100 µM (inactive)
same,GI50,SNB-19,> 100 µM (inactive)
same,GI50,PC-3,> 100 µM (inactive)
same,GI50,NCI/ADR-RES,> 100 µM (inactive)
same,GI50,ACHN,> 100 µM (inactive)
same,GI50,BT-549,> 100 µM (inactive)
same,GI50,KM12,> 100 µM (inactive)
same,GI50,786-0,> 100 µM (inactive)
same,GI50,EKVX,> 100 µM (inactive)
same,GI50,OVCAR-3,> 100 µM (inactive)
